This is an account of results in patent US20260158017A1, “KIF18A INHIBITOR” (WIGEN BIOMEDICINE TECHNOLOGY (SHANGHAI) CO., LTD., priority 2021, published 2026).

In the experiment the target is T1, Recombinant human KIF18A (1-467His-tagged) protein (Homo sapiens, UniProt Q8NI77).
T1 construct: Recombinant human KIF18A (1-467His-tagged) protein; His; made in house
T1 sequence (Q8NI77 1-467): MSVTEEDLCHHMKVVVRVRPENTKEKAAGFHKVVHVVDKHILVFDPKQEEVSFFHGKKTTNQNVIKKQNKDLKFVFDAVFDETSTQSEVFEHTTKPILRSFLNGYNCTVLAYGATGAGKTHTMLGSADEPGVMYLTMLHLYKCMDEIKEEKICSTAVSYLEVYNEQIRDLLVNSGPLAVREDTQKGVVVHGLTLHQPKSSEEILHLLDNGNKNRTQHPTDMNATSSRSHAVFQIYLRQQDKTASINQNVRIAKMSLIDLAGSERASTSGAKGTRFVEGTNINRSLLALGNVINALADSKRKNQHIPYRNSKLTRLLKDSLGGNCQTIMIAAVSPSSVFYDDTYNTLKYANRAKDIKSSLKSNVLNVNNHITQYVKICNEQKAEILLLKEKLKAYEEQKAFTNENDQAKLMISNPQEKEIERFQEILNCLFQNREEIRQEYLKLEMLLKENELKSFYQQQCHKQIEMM
T1 sequence (P02550 whole entry partner): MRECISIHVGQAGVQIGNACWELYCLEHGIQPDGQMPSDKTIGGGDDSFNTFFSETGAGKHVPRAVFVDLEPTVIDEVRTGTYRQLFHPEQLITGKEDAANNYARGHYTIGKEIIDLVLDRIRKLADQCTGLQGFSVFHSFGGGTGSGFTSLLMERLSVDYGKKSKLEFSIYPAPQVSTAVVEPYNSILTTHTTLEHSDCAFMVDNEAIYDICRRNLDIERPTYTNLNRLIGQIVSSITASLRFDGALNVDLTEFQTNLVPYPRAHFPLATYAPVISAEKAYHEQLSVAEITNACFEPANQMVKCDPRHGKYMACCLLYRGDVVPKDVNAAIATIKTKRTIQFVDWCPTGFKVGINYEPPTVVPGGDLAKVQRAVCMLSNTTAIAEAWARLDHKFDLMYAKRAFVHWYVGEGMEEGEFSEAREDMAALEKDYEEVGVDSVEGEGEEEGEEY
T1 sequence (P02554 whole entry partner): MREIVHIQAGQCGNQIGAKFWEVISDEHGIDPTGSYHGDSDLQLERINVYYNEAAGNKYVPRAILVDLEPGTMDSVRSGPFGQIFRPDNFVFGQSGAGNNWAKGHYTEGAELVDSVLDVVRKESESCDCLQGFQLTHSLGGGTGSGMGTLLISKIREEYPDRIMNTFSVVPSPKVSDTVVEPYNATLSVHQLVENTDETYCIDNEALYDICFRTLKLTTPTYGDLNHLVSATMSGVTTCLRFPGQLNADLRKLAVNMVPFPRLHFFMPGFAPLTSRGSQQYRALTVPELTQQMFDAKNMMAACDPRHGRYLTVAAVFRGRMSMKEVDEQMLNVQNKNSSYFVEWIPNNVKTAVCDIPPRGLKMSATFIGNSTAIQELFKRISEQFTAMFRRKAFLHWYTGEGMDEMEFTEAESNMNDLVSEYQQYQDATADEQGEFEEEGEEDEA
The experiment can be described thus: KIF18A enzyme assay (microtubule-stimulated ATPase activity, ADP-Glo). In kind it is biochemical. Conditions: 30 nM KIF18A, 75 μM ATP, 30 μg/mL pig microtubules; read-out: Inhibitory activity against KIF18A IC50. The gist of the method:
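Buffer 15 mM Tris pH 7.5, 10 mM MgCl2, 0.01% Pluronic F-68, 1 μM paclitaxel, 30 μg/mL pig microtubules; reactions at room temperature. IC50 from inhibition relative to DMSO.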
Consider `O=C(Nc1cnc(S(=O)(=O)NCCO)cc1N1CCC2(CC1)CC2)c1ccc([N+](=O)[O-])c(N2CCC(F)CC2)c1` [Compound 217], for which the IC50 was in the range of 0.1 to 0.5 µM.
Regarding `O=C(Nc1cnc(S(=O)(=O)NCCO)cc1N1CCC2(CC1)CC2)c1ccc([N+](=O)[O-])c(N2CC3CC3C2)c1` (centres unmarked) [Compound 218], the IC50 fell in the range of 0.1 to 0.5 µM.
As to `CC(C)(CO)Nc1cc(C(=O)Nc2cnc(S(=O)(=O)NCCO)cc2N2CCC3(CC2)CC3)ccc1[N+](=O)[O-]` [Compound 219], the IC50 fell in the range of 0.1 to 0.5 µM.
Turning to `O=C(Nc1cnc(S(=O)(=O)NCCO)cc1N1CCC2(CC1)CC2)c1ccc([N+](=O)[O-])c(N2CCOCC2)c1` [Compound 220], the IC50 lay within 0.1 to 0.5 µM.
In the case of `C[C@@H](CO)NS(=O)(=O)c1cc(N2CCC3(CC2)CC3)c(NC(=O)c2ccc([N+](=O)[O-])c(N3CCC(F)(F)CC3)c2)cn1` [Compound 221], the concentration for half-maximal inhibition (IC50) was in the range of 0.1 to 0.5 µM.
For the compound `C[C@H](CO)NS(=O)(=O)c1cc(N2CCC3(CC2)CC3)c(NC(=O)c2ccc([N+](=O)[O-])c(N3CCC(F)(F)CC3)c2)cn1` [Compound 222], the IC50 is 0.1 to 0.5 µM.
Take `C[C@@H]1CN(c2cc(C(=O)Nc3cnc(S(=O)(=O)N[C@@H](C)CO)cc3N3CCC4(CC3)CC4)ccc2[N+](=O)[O-])CCO1` [Compound 223]: the IC50 was in the range of 0.1 to 0.5 µM.
As for `C[C@H](CO)NS(=O)(=O)c1cc(N2CCC3(CC2)CC3)c(NC(=O)c2ccc([N+](=O)[O-])c(N3CCO[C@H](C)C3)c2)cn1` [Compound 224], the IC50 was 0.1 to 0.5 µM.
In the case of `O=C(Nc1cnc(NS(=O)(=O)CCO)cc1N1CCC2(CC1)CC2)c1ccc([N+](=O)[O-])c(N2CCC(F)(F)CC2)n1` [Compound 225] it was at most 0.1 µM; in that of `C[C@@H]1CN(c2nc(C(=O)Nc3cnc(NS(=O)(=O)CCO)cc3N3CCC4(CC3)CC4)ccc2[N+](=O)[O-])CCO1` [Compound 226], at most 0.1 µM; in that of `C[C@H]1CN(c2nc(C(=O)Nc3cnc(NS(=O)(=O)CCO)cc3N3CCC4(CC3)CC4)ccc2[N+](=O)[O-])CCO1` [Compound 227], at most 0.1 µM.
In the case of `O=C(Nc1cnc(NS(=O)(=O)CCO)cc1N1CCC2(CC1)CC2)c1ccc([N+](=O)[O-])c(N2CC(F)(F)C2)n1` [Compound 228] it was at most 0.1 µM.
Turning to `O=C(Nc1cnc(NS(=O)(=O)CCO)cc1N1CCC2(CC1)CC2)c1ccc([N+](=O)[O-])c(OCCC(F)(F)F)n1` [Compound 229], the IC50 was at most 0.1 µM.
On to `O=C(Nc1cnc(NS(=O)(=O)CCO)cc1N1CCC2(CC1)CC2)c1ccc([N+](=O)[O-])c(N2CCC3(CC3)C2)n1` [Compound 230], for which the IC50 was at most 0.1 µM.
With `O=C(Nc1cnc(NS(=O)(=O)CCO)cc1N1CCC2(CC1)CC2)c1ccc([N+](=O)[O-])c(OC2CCC2)n1` [Compound 231], the IC50 was at most 0.1 µM.
On to `CC1(F)CCN(c2nc(C(=O)Nc3cnc(NS(=O)(=O)CCO)cc3N3CCC4(CC3)CC4)ccc2[N+](=O)[O-])C1` (centres unmarked) [Compound 232], for which the IC50 was at most 0.1 µM.
In the case of `O=C(Nc1cnc(NS(=O)(=O)CCO)cc1N1CCC2(CC1)CC2)c1ccc([N+](=O)[O-])c(N2CCC(F)CC2)n1` [Compound 233] it was at most 0.1 µM; in that of `O=C(Nc1cnc(NS(=O)(=O)CCO)cc1N1CCC2(CC1)CC2)c1ccc([N+](=O)[O-])c(N2CC3CC3C2)n1` (centres unmarked) [Compound 234], at most 0.1 µM.
For the compound `CC(C)(CO)Nc1nc(C(=O)Nc2cnc(NS(=O)(=O)CCO)cc2N2CCC3(CC2)CC3)ccc1[N+](=O)[O-]` [Compound 235], the IC50 is at most 0.1 µM.
Regarding `O=C(Nc1cnc(NS(=O)(=O)CCO)cc1N1CCC2(CC1)CC2)c1ccc([N+](=O)[O-])c(N2CCOCC2)n1` [Compound 236], the IC50 is at most 0.1 µM.
Take `C[C@@H](CO)S(=O)(=O)Nc1cc(N2CCC3(CC2)CC3)c(NC(=O)c2ccc([N+](=O)[O-])c(N3CCC(F)(F)CC3)n2)cn1` [Compound 237]: the IC50 is at most 0.1 µM.
The figure for `C[C@H](CO)S(=O)(=O)Nc1cc(N2CCC3(CC2)CC3)c(NC(=O)c2ccc([N+](=O)[O-])c(N3CCC(F)(F)CC3)n2)cn1` [Compound 238] is at most 0.1 µM.
In the case of `C[C@@H]1CN(c2nc(C(=O)Nc3cnc(NS(=O)(=O)[C@@H](C)CO)cc3N3CCC4(CC3)CC4)ccc2[N+](=O)[O-])CCO1` [Compound 239], the IC50 was at most 0.1 µM.
Consider `C[C@@H]1CN(c2nc(C(=O)Nc3cnc(NS(=O)(=O)[C@H](C)CO)cc3N3CCC4(CC3)CC4)ccc2[N+](=O)[O-])CCO1` [Compound 240], for which the IC50 was at most 0.1 µM.
Regarding `O=C(Nc1cnc(S(=O)(=O)NCCO)cc1N1CCC2(CC1)CC2)c1ccc([N+](=O)[O-])c(N2CCC(F)(F)CC2)n1` [Compound 241], the IC50 fell in the range of 0.1 to 0.5 µM.
Consider `C[C@@H]1CN(c2nc(C(=O)Nc3cnc(S(=O)(=O)NCCO)cc3N3CCC4(CC3)CC4)ccc2[N+](=O)[O-])CCO1` [Compound 242], for which the IC50 is 0.1 to 0.5 µM.
With `C[C@H]1CN(c2nc(C(=O)Nc3cnc(S(=O)(=O)NCCO)cc3N3CCC4(CC3)CC4)ccc2[N+](=O)[O-])CCO1` [Compound 243], the 50% inhibitory concentration (IC50) is 0.1 to 0.5 µM.
As to `O=C(Nc1cnc(S(=O)(=O)NCCO)cc1N1CCC2(CC1)CC2)c1ccc([N+](=O)[O-])c(N2CC(F)(F)C2)n1` [Compound 244], the IC50 is 0.1 to 0.5 µM.
For `O=C(Nc1cnc(S(=O)(=O)NCCO)cc1N1CCC2(CC1)CC2)c1ccc([N+](=O)[O-])c(OCCC(F)(F)F)n1` [Compound 245], the IC50 was 0.1 to 0.5 µM.
On to `O=C(Nc1cnc(S(=O)(=O)NCCO)cc1N1CCC2(CC1)CC2)c1ccc([N+](=O)[O-])c(OC2CCC2)n1` [Compound 247], for which the concentration for half-maximal inhibition (IC50) lay in the range of 0.1 to 0.5 µM.
Regarding `CC1(F)CCN(c2nc(C(=O)Nc3cnc(S(=O)(=O)NCCO)cc3N3CCC4(CC3)CC4)ccc2[N+](=O)[O-])C1` (centres unmarked) [Compound 248], the IC50 was in the range of 0.1 to 0.5 µM.
As for `O=C(Nc1cnc(S(=O)(=O)NCCO)cc1N1CCC2(CC1)CC2)c1ccc([N+](=O)[O-])c(N2CCC(F)CC2)n1` [Compound 249], the concentration for half-maximal inhibition (IC50) is 0.1 to 0.5 µM.
In the case of `O=C(Nc1cnc(S(=O)(=O)NCCO)cc1N1CCC2(CC1)CC2)c1ccc([N+](=O)[O-])c(N2CC3CC3C2)n1` (centres unmarked) [Compound 250] it was 0.1 to 0.5 µM; in that of `CC(C)(CO)Nc1nc(C(=O)Nc2cnc(S(=O)(=O)NCCO)cc2N2CCC3(CC2)CC3)ccc1[N+](=O)[O-]` [Compound 251], 0.1 to 0.5 µM.
With `O=C(Nc1cnc(S(=O)(=O)NCCO)cc1N1CCC2(CC1)CC2)c1ccc([N+](=O)[O-])c(N2CCOCC2)n1` [Compound 252], the IC50 is 0.1 to 0.5 µM.
As to `C[C@@H](CO)NS(=O)(=O)c1cc(N2CCC3(CC2)CC3)c(NC(=O)c2ccc([N+](=O)[O-])c(N3CCC(F)(F)CC3)n2)cn1` [Compound 253], the IC50 was in the range of 0.1 to 0.5 µM.
On to `C[C@H](CO)NS(=O)(=O)c1cc(N2CCC3(CC2)CC3)c(NC(=O)c2ccc([N+](=O)[O-])c(N3CCC(F)(F)CC3)n2)cn1` [Compound 254], for which the IC50 is 0.1 to 0.5 µM.
The figure for `C[C@@H]1CN(c2nc(C(=O)Nc3cnc(S(=O)(=O)N[C@@H](C)CO)cc3N3CCC4(CC3)CC4)ccc2[N+](=O)[O-])CCO1` [Compound 255] is 0.1 to 0.5 µM; for `C[C@H](CO)NS(=O)(=O)c1cc(N2CCC3(CC2)CC3)c(NC(=O)c2ccc([N+](=O)[O-])c(N3CCO[C@H](C)C3)n2)cn1` [Compound 256] it is 0.1 to 0.5 µM; for `COc1ccc(NC(=O)c2ccc(NS(=O)(=O)CCO)cc2N2CCC3(CC2)CC3)nc1N1CCC(C)(F)C1` (centres unmarked) [Compound 264] it is at most 0.1 µM.
On to `COc1ccc(NC(=O)c2ccc(NS(=O)(=O)CCO)cc2N2CCC3(CC2)CC3)nc1N1CCC(F)CC1` [Compound 265], for which the IC50 is at most 0.1 µM.
In the case of `COc1ccc(NC(=O)c2ccc(NS(=O)(=O)CCO)cc2N2CCC3(CC2)CC3)nc1N1CC2CC2C1` (centres unmarked) [Compound 266] it was at most 0.1 µM; in that of `COc1ccc(NC(=O)c2ccc(NS(=O)(=O)CCO)cc2N2CCC3(CC2)CC3)nc1NC(C)(C)CO` [Compound 267], at most 0.1 µM; in that of `COc1ccc(NC(=O)c2ccc(NS(=O)(=O)CCO)cc2N2CCC3(CC2)CC3)nc1N1CCOCC1` [Compound 268], at most 0.1 µM.
For the compound `COc1ccc(NC(=O)c2ccc(NS(=O)(=O)[C@@H](C)CO)cc2N2CCC3(CC2)CC3)nc1N1CCC(F)(F)CC1` [Compound 269], the IC50 was at most 0.1 µM.
Turning to `COc1ccc(NC(=O)c2ccc(NS(=O)(=O)[C@H](C)CO)cc2N2CCC3(CC2)CC3)nc1N1CCC(F)(F)CC1` [Compound 270], the IC50 is at most 0.1 µM.
Take `COc1ccc(NC(=O)c2ccc(NS(=O)(=O)[C@@H](C)CO)cc2N2CCC3(CC2)CC3)nc1N1CCO[C@H](C)C1` [Compound 271]: the IC50 was at most 0.1 µM.
Regarding `COc1ccc(NC(=O)c2ccc(NS(=O)(=O)[C@H](C)CO)cc2N2CCC3(CC2)CC3)nc1N1CCO[C@H](C)C1` [Compound 272], the IC50 was at most 0.1 µM.
In the case of `COc1ccc(NC(=O)c2ccc(S(=O)(=O)NCCO)cc2N2CCC3(CC2)CC3)nc1N1CCO[C@H](C)C1` [Compound 274] it was at most 0.1 µM.
For the compound `COc1ccc(NC(=O)c2ccc(S(=O)(=O)NCCO)cc2N2CCC3(CC2)CC3)nc1N1CCO[C@@H](C)C1` [Compound 275], the concentration for half-maximal inhibition (IC50) was at most 0.1 µM.
With `COc1ccc(NC(=O)c2ccc(S(=O)(=O)NCCO)cc2N2CCC3(CC2)CC3)nc1N1CC(F)(F)C1` [Compound 276], the IC50 was at most 0.1 µM.
For the compound `COc1ccc(NC(=O)c2ccc(S(=O)(=O)NCCO)cc2N2CCC3(CC2)CC3)nc1OCCC(F)(F)F` [Compound 277], the IC50 was at most 0.1 µM.
In the case of `COc1ccc(NC(=O)c2ccc(S(=O)(=O)NCCO)cc2N2CCC3(CC2)CC3)nc1N1CCC2(CC2)C1` [Compound 278], the IC50 is at most 0.1 µM.
With `COc1ccc(NC(=O)c2ccc(S(=O)(=O)NCCO)cc2N2CCC3(CC2)CC3)nc1OC1CCC1` [Compound 279], the 50% inhibitory concentration (IC50) was at most 0.1 µM.
As to `COc1ccc(NC(=O)c2ccc(S(=O)(=O)NCCO)cc2N2CCC3(CC2)CC3)nc1N1CCC(C)(F)C1` (centres unmarked) [Compound 280], the IC50 is at most 0.1 µM.
With `COc1ccc(NC(=O)c2ccc(S(=O)(=O)NCCO)cc2N2CCC3(CC2)CC3)nc1N1CCC(F)CC1` [Compound 281], the IC50 was at most 0.1 µM.

What is called IC50 is the concentration that inhibits the measured activity by half.
